Laboratory results from patent US20220347194A1, “METHODS AND COMPOSITIONS FOR TREATING PAIN AND OTHER EPH RECEPTOR-ASSOCIATED CONDITIONS” (THE BOARD OF REGENTS OF THE UNIVERSITY OF TEXAS SYSTEM, priority 2019, published 2022).
pIC50: −log10 of the molar value.

Experiments:
[1] = target: T1, EphB4 kinase domain (Homo sapiens, UniProt P54760); assay: Radiometric protein kinase assay (33PanQinase Activity Assay), EphB4
T1 sequence (P54760 615-899 limits assumed): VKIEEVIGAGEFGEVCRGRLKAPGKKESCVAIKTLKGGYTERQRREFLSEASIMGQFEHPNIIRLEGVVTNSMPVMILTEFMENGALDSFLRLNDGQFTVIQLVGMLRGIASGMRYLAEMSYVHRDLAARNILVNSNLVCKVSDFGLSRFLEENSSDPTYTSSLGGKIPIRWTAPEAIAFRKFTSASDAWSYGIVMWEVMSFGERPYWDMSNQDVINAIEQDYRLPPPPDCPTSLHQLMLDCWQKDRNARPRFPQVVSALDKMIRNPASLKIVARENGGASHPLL
Experimental: (§2) Kinase domains were produced by ProQinase using human cDNAs to express recombinant GST/His-fusion proteins that were purified by affinity chromatography and determined to be enzymatically active by phosphorylation of a Poly (Glu, Tyr) substrate. The FDA compounds were assayed in 10 concentrations in the range from 1×10^−4 M to 3×10^−9 M for their ability to effect kinase activities. The final DMSO concentration in the reaction cocktails was 1% in all cases. Kinase assays were performed in 96-well FlashPlates™ from PerkinElmer (Boston, Mass., USA) in a 50 μl reaction volume. The reaction cocktail was pipetted in four steps in the following order: 20 μl of assay buffer (standard buffer), 5 μl of ATP solution (in H2O), 5 μl of test compound (in 10% DMSO), and 20 μl enzyme/substrate mix. […] The reaction cocktails were incubated at 30° C. for 60 minutes. The reaction was stopped with 50 μl of 2% (v/v) H3PO4, plates were aspirated and washed two times with 200 μl 0.9% (w/v) NaCl. Incorporation of ^33Pi was determined with a microplate scintillation counter (Microbeta, Wallac). All assays were performed with a BeckmanCoulter/SAGIAN™ Core System. The median value of the counts in column 1 (n=8) of each assay plate was defined as “low control”. This value reflects unspecific binding of radioactivity to the plate in the absence of a protein kinase but in the presence of the substrate. […] The residual activity (in %) for each well of a particular plate was calculated by using the following formula: Res. Activity (%)=100×[(cpm of compound−low control)/(high control−low control)] […]
(§3) For each kinase, the median value of the cpm of three wells with complete reaction cocktails, but without kinase, was defined as “low control” (n=3). This value reflects unspecific binding of radioactivity to the plate in the absence of protein kinase but in the presence of the substrate. […] The residual activity (in %) for each well of each row of a particular plate was calculated by using the following formula: Res. Activity (%)=100×[(cpm of compound−low control)/(high control−low control)]. […]

[2] = target: T2, EphB2 kinase domain (Homo sapiens, UniProt P29323); assay: Radiometric protein kinase assay (33PanQinase Activity Assay), EphB2
T2 sequence (P29323 621-884 limits assumed): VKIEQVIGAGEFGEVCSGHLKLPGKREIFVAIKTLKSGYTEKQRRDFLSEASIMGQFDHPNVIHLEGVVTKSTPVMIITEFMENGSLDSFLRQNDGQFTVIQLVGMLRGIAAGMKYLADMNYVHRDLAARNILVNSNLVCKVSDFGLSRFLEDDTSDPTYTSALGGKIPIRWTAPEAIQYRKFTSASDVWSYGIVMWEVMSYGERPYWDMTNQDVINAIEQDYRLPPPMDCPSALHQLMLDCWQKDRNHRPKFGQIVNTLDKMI
Experimental: as §2, §3

[3] = target: T3, EphB1 kinase domain (Homo sapiens, UniProt P54762); assay: Radiometric protein kinase assay (33PanQinase Activity Assay), EphB1; conditions: for inhibition of EphB1 kinase activity: concentrations up to 100 μM
T3 sequence (P54762 619-882 limits assumed): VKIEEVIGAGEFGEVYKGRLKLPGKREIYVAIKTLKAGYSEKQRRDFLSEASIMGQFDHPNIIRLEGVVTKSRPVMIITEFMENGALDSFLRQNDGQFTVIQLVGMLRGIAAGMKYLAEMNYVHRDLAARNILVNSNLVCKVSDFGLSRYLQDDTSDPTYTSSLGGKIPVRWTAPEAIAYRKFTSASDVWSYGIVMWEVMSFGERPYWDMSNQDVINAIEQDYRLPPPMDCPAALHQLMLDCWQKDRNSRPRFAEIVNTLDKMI
Experimental: (§4) Kinase domains were produced by ProQinase using human cDNAs to express recombinant GST/His-fusion proteins that were purified by affinity chromatography and determined to be enzymatically active by phosphorylation of a Poly (Glu, Tyr) substrate. The FDA compounds were assayed in 10 concentrations in the range from 1×10^−4 M to 3×10^−9 M for their ability to effect kinase activities. The final DMSO concentration in the reaction cocktails was 1% in all cases. Kinase assays were performed in 96-well FlashPlates™ from PerkinElmer (Boston, Mass., USA) in a 50 μl reaction volume. The reaction cocktail was pipetted in four steps in the following order: 20 μl of assay buffer (standard buffer), 5 μl of ATP solution (in H2O), 5 μl of test compound (in 10% DMSO), and 20 μl enzyme/substrate mix. […] The reaction cocktails were incubated at 30° C. for 60 minutes. The reaction was stopped with 50 μl of 2% (v/v) H3PO4, plates were aspirated and washed two times with 200 μl 0.9% (w/v) NaCl. Incorporation of ^33Pi was determined with a microplate scintillation counter (Microbeta, Wallac). All assays were performed with a BeckmanCoulter/SAGIAN™ Core System. The median value of the counts in column 1 (n=8) of each assay plate was defined as “low control”. This value reflects unspecific binding of radioactivity to the plate in the absence of a protein kinase but in the presence of the substrate. The median value of the counts in column 7 of each assay plate (n=8) was taken as the “high control”, i.e. full activity in the absence of any inhibitor. The difference between high and low control was taken as 100% activity. As part of the data evaluation the low control value from a particular plate was subtracted from the high control value as well as from all 80 “compound values” of the corresponding plate. The residual activity (in %) for each well of a particular plate was calculated by using the following formula: Res. Activity (%)=100×[(cpm of compound−low control)/(high control−low control)]
(§5) The fitting method used was a least-squares fit.
For each kinase, the median value of the cpm of three wells with complete reaction cocktails, but without kinase, was defined as “low control” (n=3). This value reflects unspecific binding of radioactivity to the plate in the absence of protein kinase but in the presence of the substrate. Additionally, for each kinase the median value of the cpm of three other wells with the complete reaction cocktail, but without any compound, was taken as the “high control”, i.e. full activity in the absence of any inhibitor (n=3). The difference between high and low control was taken as 100% activity for each kinase. As part of the data evaluation the low control of each row of a particular plate was subtracted from the high control value as well as from their corresponding “compound values”. The residual activity (in %) for each well of each row of a particular plate was calculated by using the following formula: Res. Activity (%)=100×[(cpm of compound−low control)/(high control−low control)]. […] The mathematical model used was “Sigmoidal response (variable slope)” with parameters “top” fixed at 100% and “bottom” at 0%.

[4] = target: T4, EphB3 kinase domain (Homo sapiens, UniProt P54753); assay: Radiometric protein kinase assay (33PanQinase Activity Assay), EphB3
T4 sequence (P54753 633-896 limits assumed): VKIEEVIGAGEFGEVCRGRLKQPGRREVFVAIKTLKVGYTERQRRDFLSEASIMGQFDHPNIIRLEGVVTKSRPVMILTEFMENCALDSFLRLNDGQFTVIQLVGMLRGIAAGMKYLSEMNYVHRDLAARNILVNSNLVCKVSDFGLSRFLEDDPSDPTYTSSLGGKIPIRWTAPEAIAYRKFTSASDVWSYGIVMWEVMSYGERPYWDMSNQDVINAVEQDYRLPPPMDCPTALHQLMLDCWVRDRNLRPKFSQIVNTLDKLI
Experimental: as §4, §5
For each kinase, the median value of the cpm of three wells with complete reaction cocktails, but without kinase, was defined as “low control” (n=3). This value reflects unspecific binding of radioactivity to the plate in the absence of protein kinase but in the presence of the substrate. Additionally, for each kinase the median value of the cpm of three other wells with the complete reaction cocktail, but without any compound, was taken as the “high control”, i.e. full activity in the absence of any inhibitor (n=3). […] The residual activity (in %) for each well of each row of a particular plate was calculated by using the following formula: Res. Activity (%)=100×[(cpm of compound−low control)/(high control−low control)]. […]

[5] = test system: Complete freund's adjuvant (CFA) Induced pain model; assay: Complete freund's adjuvant (CFA) Induced pain model (Hargreaves and Von Frey tests); format: in vivo, CD1 mice
Experimental: (§1) Animals. A total of 40 male outbred CD1 mice were obtained from Charles River Laboratories at 8 weeks of age. Mice were housed in the animal facility of UT southwestern Medical Center, with constant temperature (21-24° C.) and humidity (30-50%) with free access to standard animal feed and water. The room was kept on a 12/12 light/dark cycle, with white light (light cycle) on at 2400 hours and red lights (dark cycle) on at 1200 hours. All of the procedures were conducted with approval from the UT southwestern Medical Center Institutional Animal Care and Use Committee (IACUC Protocol No. 2017-102090). Ugo Basile® the original Plantar Test (Hargreaves Apparatus) was used for thermal stimulation, where infrared beam was adjusted to give an average paw withdrawal latency of about 10 s in wild type mice and cut-off time was set to 30 s to avoid tissue damage. Ugo Basile® Dynamic Plantar Aesthesiometer (DPA) for mechanical stimulation (Electronic Von Frey) were used for mechanical stimulation, where the force (grams) was set at 50 g to prevent tissue damage. Animals were placed in clear acrylic cubicles (22×16.5×14 cm) for at least one hour prior testing. The testing/recording was done every 5 minutes with no repetition for the same mouse. Blinded person(s) to the individual treatment assignments recorded true reflexes.
Complete freund's adjuvant (CFA) Induced pain model. […] A baseline was for detected for the mice behavior towards thermal hyperalgesia using Hargreaves Test and mechanical allodynia using Von Frey Test. The drugs were administered via gavage for three consecutive days before CFA injection. On the morning of the experiment (6 hours before CFA injection), the last dose of drugs was administered. CFA was injected in the right paw, while the left paw remained un-injected as control. The testing involved two stimulus thermal hyperalgesia using Hargreaves Test and mechanical allodynia using Von Frey Test at Days 1, 2, 3, and 5.

[6] = test system: Human glioblastoma (GBM) cells; assay: Glioblastoma cell migration; format: cell-based; conditions: 12.5, 25, 50, and 100 μM; after 24 hours
Experimental: Cell migration was tested after 24 hours.

[7] = test system: Capsaicin Induced pain model; assay: Capsaicin Induced pain model (Hargreaves and Von Frey tests); format: in vivo, CD1 mice; conditions: capsaicin-injected paw vs controls; Demeclocycline 17 mg/kg/day, DC 7 mg/kg/day, MCD 5 mg/kg/day, p.o
Experimental: as §1
Capsaicin Induced pain model. […]

[8] = tested at Days 1, 2, 3, and 5, P<0.001

pIC50 [1] | pIC50 [2] | pIC50 [3] | pIC50 [4] | inhibition of EphB1 kinase activity [3] | Compound | further results
– | – | – | – | failed to inhibit | CCC(=O)NCC[C@@H]1CCc2ccc3c(c21)CCO3 [ramelteon] | –
– | – | – | – | failed to inhibit | NC(=O)C(c1ccccc1)(c1ccccc1)[C@@H]1CCN(CCc2ccc3c(c2)CCO3)C1 [darifenacin] | –

Second part, the compound before the results:

Compound | pIC50 [1] | pIC50 [2] | pIC50 [3] | pIC50 [4] | inhibition of EphB1 kinase activity [3] | further results
CN(C)[C@@H]1C(O)=C(C(N)=O)C(=O)[C@@]2(O)C(O)=C3C(=O)c4c(O)ccc(Cl)c4[C@@](C)(O)[C@H]3C[C@@H]12 [chlortetracycline] | 4.04 to 4.43 | 4.04 to 4.43 | 4.36 | 4.26 | – | –
CN(C)[C@@H]1C(O)=C(C(N)=O)C(=O)[C@@]2(O)C(O)=C3C(=O)c4c(O)ccc(Cl)c4[C@@H](O)[C@H]3C[C@@H]12 [Demeclocycline, demeclocycline] | 4.04 to 4.43 | 4.04 to 4.43 | 4.41 | 4.33 | – | paw withdrawal latency, thermal stimulus (Hargreaves) ([5]; injected paw vs controls, p.o): prolonged the paw withdrawal latency; response to mechanical stimulus (von Frey) ([5]; injected paw vs controls, p.o): same behavior was observed; time until which significant improvement for mechanical (tactile) allodynia was shown [5, 8]: 1 days; time until which significant improvement in paw withdrawal latency for thermal hyperalgesia was shown [5, 8]: ≤ 2 days; glioblastoma cell migration [6]: inhibited glioblastoma cell migration; influence on EphB3 catalytic activity ([4]; low nanomolar ranges (biphasic)): slightly elevated activity; paw withdrawal latency, thermal stimulus (Hargreaves) [7]: prolonged the paw withdrawal latency; response to mechanical stimulus (von Frey) [7]: same behavior was observed
CN(C)c1ccc(O)c2c1C[C@H]1C[C@H]3[C@H](N(C)C)C(O)=C(C(N)=O)C(=O)[C@@]3(O)C(O)=C1C2=O [minocycline] | 4.04 to 4.43 | 4.04 to 4.43 | 4.25 | 4.04 | – | –
